What all share (type): cell-based
The target of one experiment is T1, human TLR8 (Homo sapiens, UniProt Q9NR97).
T1 construct: host or cells: HEK-Blue cells (HEK293-derived reporter line)
T1 sequence (Q9NR97 27-1041): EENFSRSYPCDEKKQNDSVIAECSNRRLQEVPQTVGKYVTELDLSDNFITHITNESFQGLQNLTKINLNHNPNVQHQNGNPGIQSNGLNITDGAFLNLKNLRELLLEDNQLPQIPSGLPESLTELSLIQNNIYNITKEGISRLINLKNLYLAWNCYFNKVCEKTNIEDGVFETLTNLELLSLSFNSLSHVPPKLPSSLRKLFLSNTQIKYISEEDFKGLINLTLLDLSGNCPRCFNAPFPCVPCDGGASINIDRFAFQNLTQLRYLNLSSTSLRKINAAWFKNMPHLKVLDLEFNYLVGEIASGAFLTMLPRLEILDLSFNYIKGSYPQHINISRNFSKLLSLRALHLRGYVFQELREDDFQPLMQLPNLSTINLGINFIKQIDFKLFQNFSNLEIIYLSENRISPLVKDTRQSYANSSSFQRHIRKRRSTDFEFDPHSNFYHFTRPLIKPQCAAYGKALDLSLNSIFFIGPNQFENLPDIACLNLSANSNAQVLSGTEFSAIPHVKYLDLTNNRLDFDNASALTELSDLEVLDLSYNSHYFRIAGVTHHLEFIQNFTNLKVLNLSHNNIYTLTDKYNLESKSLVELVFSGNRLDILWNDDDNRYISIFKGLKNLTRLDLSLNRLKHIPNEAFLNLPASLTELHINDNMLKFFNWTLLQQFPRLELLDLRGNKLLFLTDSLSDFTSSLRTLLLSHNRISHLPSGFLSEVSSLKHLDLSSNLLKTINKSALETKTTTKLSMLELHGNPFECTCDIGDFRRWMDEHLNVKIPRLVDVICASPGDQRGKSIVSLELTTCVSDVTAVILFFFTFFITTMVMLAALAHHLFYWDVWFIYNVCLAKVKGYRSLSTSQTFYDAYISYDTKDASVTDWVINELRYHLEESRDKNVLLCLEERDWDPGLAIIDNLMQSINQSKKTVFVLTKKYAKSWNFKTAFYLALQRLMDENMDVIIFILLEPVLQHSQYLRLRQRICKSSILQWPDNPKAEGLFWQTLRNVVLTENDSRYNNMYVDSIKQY
The experiment in a line: TLR8 inhibition reporter assay (HEK-Blue cells, SEAP reporter, R848 stimulation). The conditions noted are these: HEK-Blue cells overexpressing human TLR8, SEAP reporter, R848 15.9 μM. The method in brief:
(§1)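 HEK-Blue cells overexpressing the receptor, with NF-κB/AP-1-driven SEAP, were pre-treated 30 min at room temperature with compound (0.05 nM–50 μM), then stimulated with gardiquimod 7.5 μM (TLR7), R848 15.9 μM (TLR8) or ODN2006 5 nM (TLR9). SEAP was read after 22 h at 37 °C as percent inhibition.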

Another experiment concerns the target T2, human TLR7 (Homo sapiens, UniProt Q9NYK1).
T2 construct: host or cells: HEK-Blue cells (HEK293-derived reporter line)
T2 sequence (Q9NYK1 27-1049): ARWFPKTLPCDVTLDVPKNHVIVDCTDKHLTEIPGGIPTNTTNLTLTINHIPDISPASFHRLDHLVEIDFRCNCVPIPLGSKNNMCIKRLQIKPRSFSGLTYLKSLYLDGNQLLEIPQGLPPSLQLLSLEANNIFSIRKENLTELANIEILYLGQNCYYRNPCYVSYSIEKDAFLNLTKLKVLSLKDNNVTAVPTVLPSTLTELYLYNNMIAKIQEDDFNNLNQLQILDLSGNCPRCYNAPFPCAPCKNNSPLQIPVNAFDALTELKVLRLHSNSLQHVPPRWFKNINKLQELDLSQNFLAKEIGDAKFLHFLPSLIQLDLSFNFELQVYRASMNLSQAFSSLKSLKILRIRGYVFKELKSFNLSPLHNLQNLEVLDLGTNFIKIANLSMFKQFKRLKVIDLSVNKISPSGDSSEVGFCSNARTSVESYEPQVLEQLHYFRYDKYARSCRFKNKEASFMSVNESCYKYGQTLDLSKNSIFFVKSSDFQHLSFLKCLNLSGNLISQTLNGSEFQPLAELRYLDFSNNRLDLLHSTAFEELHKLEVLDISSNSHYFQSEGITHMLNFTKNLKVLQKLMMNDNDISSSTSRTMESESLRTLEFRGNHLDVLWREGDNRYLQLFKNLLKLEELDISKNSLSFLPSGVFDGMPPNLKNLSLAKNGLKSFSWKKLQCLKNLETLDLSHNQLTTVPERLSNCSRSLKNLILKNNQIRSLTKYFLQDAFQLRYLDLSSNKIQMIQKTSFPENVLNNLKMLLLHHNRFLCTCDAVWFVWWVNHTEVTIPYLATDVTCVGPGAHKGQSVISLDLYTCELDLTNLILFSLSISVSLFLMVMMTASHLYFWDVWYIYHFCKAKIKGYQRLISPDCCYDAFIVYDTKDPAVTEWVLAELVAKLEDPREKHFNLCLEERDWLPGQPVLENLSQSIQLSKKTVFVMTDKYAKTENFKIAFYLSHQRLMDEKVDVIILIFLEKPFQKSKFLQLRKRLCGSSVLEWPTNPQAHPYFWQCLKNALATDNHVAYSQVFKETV
The experiment in a line: TLR7 inhibition reporter assay (HEK-Blue cells, SEAP reporter, gardiquimod stimulation). The following applies: HEK-Blue cells overexpressing human TLR7, SEAP reporter, gardiquimod 7.5 μM. The method in brief:
as §1

The target in another experiment is T3, human TLR9 (Homo sapiens, UniProt Q9NR96).
T3 construct: host or cells: HEK-Blue cells (HEK293-derived reporter line)
T3 sequence (Q9NR96 26-1032): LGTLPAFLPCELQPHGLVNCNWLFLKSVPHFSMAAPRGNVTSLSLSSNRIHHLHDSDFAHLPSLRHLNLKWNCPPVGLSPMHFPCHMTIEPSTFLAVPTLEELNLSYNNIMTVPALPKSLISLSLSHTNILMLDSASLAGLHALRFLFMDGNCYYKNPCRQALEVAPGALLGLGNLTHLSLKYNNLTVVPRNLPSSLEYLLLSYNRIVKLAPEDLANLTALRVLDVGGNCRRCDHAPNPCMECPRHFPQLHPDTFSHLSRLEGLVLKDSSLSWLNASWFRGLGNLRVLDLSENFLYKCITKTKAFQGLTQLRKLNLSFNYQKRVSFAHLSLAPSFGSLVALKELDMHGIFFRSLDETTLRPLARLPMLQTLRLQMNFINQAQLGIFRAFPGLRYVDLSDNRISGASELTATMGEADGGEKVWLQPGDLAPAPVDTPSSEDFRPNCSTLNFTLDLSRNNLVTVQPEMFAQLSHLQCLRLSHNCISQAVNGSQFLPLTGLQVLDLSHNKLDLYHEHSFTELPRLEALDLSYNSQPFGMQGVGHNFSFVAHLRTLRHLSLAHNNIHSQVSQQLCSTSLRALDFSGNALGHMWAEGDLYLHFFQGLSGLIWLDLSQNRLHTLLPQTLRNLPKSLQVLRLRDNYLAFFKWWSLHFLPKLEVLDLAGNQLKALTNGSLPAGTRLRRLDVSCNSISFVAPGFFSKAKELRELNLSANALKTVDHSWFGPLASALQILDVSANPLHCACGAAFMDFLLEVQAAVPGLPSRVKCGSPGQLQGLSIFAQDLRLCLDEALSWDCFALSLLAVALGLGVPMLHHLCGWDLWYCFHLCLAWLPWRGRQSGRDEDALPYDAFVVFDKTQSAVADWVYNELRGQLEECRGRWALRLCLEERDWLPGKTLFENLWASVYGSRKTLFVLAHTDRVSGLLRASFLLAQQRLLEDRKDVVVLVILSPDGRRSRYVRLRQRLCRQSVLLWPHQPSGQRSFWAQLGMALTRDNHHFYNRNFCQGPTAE
In words: TLR9 inhibition reporter assay (HEK-Blue cells, SEAP reporter, ODN2006 stimulation). The following applies: HEK-Blue cells overexpressing human TLR9, SEAP reporter, ODN2006 5 nM. The method in brief: as §1

Structures are written as SMILES.

As for `Cc1c(-c2[nH]c3ccc(C4CCNCC4)cc3c2C(C)C)ccc2c1cnn2C` [Example 94, 5-(3-isopropyl-5-(piperidin-4-yl)-1H-indol-2-yl)-1,4-dimethyl-1H-indazole], the IC50 at human TLR8 is less than 100 nM; against human TLR7, less than 100 nM; against human TLR9, 1000 to 50000 nM.

For `COc1nc(-c2[nH]c3ccc(C4CCNCC4)cc3c2C(C)C)cn2ncnc12` [Example 47, 6-(3-isopropyl-5-(piperidin-4-yl)-1H-indol-2-yl)-8-methoxy-[1,2,4]triazolo[1,5-a]pyrazine], the IC50 against human TLR8 is more than 3130 nM; against human TLR7, 100 to 1000 nM; against human TLR9, 1000 to 50000 nM.

Consider `CC(C)c1c(-c2cn3cnnc3c(=O)n2C)[nH]c2ccc(C3CCNCC3)cc12` [Example 237, 6-(3-isopropyl-5-(piperidin-4-yl)-1H-indol-2-yl)-7-methyl-[1,2,4]triazolo[4,3-a]pyrazin-8(7H)-one], for which the IC50 is more than 3130 nM against human TLR8, more than 3130 nM at human TLR7 and 1000 to 50000 nM against human TLR9.

`Cc1cc(-c2[nH]c3ccc(C4CCN(CC(N)=O)CC4)cc3c2C(C)C)cc2cnnn12` [Example 321, 2-(4-(3-isopropyl-2-(7-methyl-[1,2,3]triazolo[1,5-a]pyridin-5-yl)-1H-indol-5-yl)piperidin-1-yl)acetamide]: the IC50 was less than 100 nM against human TLR8, less than 100 nM on human TLR7 and 1000 to 50000 nM against human TLR9.

Take `Cc1nc2cc(-c3[nH]c4ccc(C5CCN(C(=O)CC(C)(C)O)CC5)cc4c3C(C)C)ccn2n1` [Example 601, 3-hydroxy-1-(4-(3-isopropyl-2-(2-methyl-[1,2,4]triazolo[1,5-a]pyridin-7-yl)-1H-indol-5-yl)piperidin-1-yl)-3-methylbutan-1-one]: the values for the IC50 on human TLR8, on human TLR7 and on human TLR9 were more than 3130 nM, less than 100 nM and 1000 to 50000 nM, respectively.

In the case of `CN(C)CC(=O)N1CCC(c2ccc3[nH]c(-c4cc(F)c5nccn5c4)c(CC(F)F)c3c2)CC1` [Example 546, 1-(4-(3-(2,2-difluoroethyl)-2-(8-fluoroimidazo[1,2-a]pyridin-6-yl)-1H-indol-5-yl)piperidin-1-yl)-2-(dimethylamino)ethan-1-one], the IC50 at human TLR8 is 100 to 1000 nM; against human TLR7, less than 100 nM; against human TLR9 it was 100 to 1000 nM.

Turning to `CCOc1cc(-c2[nH]c3ccc(C4CCN(CC(=O)N(C)C)CC4)cc3c2C(C)C)cc2ncnn12` [Example 350, 2-(4-(2-(5-ethoxy-[1,2,4]triazolo[1,5-a]pyridin-7-yl)-3-isopropyl-1H-indol-5-yl)piperidin-1-yl)-N,N-dimethylacetamide], the results for the concentration for half-maximal inhibition (IC50) on human TLR8, at human TLR7 and on human TLR9 were less than 100 nM, less than 100 nM and 1000 to 50000 nM, respectively.

Consider `CCOC(=O)N1CCC(N2CCC(c3ccc4[nH]c(-c5ccnc6[nH]ncc56)c(C(C)C)c4c3)CC2)C(C)C1` (stereo not drawn) [Example 835, ethyl 4-(3-isopropyl-2-(1H-pyrazolo[3,4-b]pyridin-4-yl)-1H-indol-5-yl)-3′-methyl-[1,4′-bipiperidine]-1′-carboxylate], for which the IC50 was in the range of 100 to 1000 nM against human TLR8, 100 to 1000 nM against human TLR7 and 1000 to 50000 nM on human TLR9.

For `CNC(=O)CN1CCC(c2ccc3[nH]c(-c4cc(C)c5ncccc5c4)c(C(C)C)c3c2)CC1` [Example 437, 2-(4-(3-isopropyl-2-(8-methylquinolin-6-yl)-1H-indol-5-yl)piperidin-1-yl)-N-methylacetamide], the values for the IC50 at human TLR8, against human TLR7 and against human TLR9 were less than 100 nM, less than 100 nM and 1000 to 50000 nM, respectively.

For the molecule `Cc1nc2c(C)cc(-c3[nH]c4ccc(C5CCNCC5)cc4c3C(C)C)cn2c1C` [Example 132, 6-(3-isopropyl-5-(piperidin-4-yl)-1H-indol-2-yl)-2,3,8-trimethylimidazo[1,2-a]pyridine], the figures for the IC50 on human TLR8, at human TLR7 and at human TLR9 were 100 to 1000 nM, less than 100 nM and 100 to 1000 nM, respectively.

Consider `CNC(=O)CN1CCC(c2ccc3[nH]c(-c4cc(C)c5nccn5n4)c(C(C)C)c3c2)CC1` [Example 448, 2-(4-(3-isopropyl-2-(8-methylimidazo[1,2-b]pyridazin-6-yl)-1H-indol-5-yl)piperidin-1-yl)-N-methylacetamide], for which the IC50 against human TLR8 was less than 100 nM; against human TLR7 it was less than 100 nM; against human TLR9 it was 1000 to 50000 nM.

Take `CC(C)c1c(-c2ccnc3[nH]ncc23)[nH]c2ccc(C3CCN(Cc4csc(N)n4)CC3)cc12` [Example 925, 4-((4-(3-isopropyl-2-(1H-pyrazolo[3,4-b]pyridin-4-yl)-1H-indol-5-yl)piperidin-1-yl)methyl)thiazol-2-amine]: the IC50 against human TLR8 was less than 100 nM; against human TLR7, less than 100 nM; on human TLR9, 1000 to 50000 nM.

`CCc1c(-c2c[nH]c3ncccc23)[nH]c2ccc(C3CCNCC3)cc12` [Example 243, 3-(3-ethyl-5-(piperidin-4-yl)-1H-indol-2-yl)-1H-pyrrolo[2,3-b]pyridine]: the IC50 against human TLR8 was less than 100 nM; against human TLR7, less than 100 nM; at human TLR9, 100 to 1000 nM.
